Assay results reported in patent publication US6365135B1, “Use of amino phenol amide derivatives as depigmentation agents” (L'Oreal, priority 1997, dated 2002).

Tested on: co-culture of keratinocytes and melanocytes
Assay: Depigmenting activity test: inhibition of melanogenesis on a co-culture of keratinocytes and melanocytes
Assay type: cell-based
Details: for Class (maximum depigmenting activity): inhibition of melanogenesis relative to the control; for IC50: co-culture of keratinocytes and melanocytes, read-out: IC50 (concentration for which a 50% inhibition of melanogenesis is observed)
Method: This test corresponds to the one described in patent FR 2,734,825 filed by the Applicant, as well as in the article by R. Schmidt, P. Krien and M. Régnier, Anal. Biochem., 235 (2), 113-18, (1996). This test is thus carried out on a co-culture of keratinocytes and melanocytes.
For each test compound, the IC50 value, which corresponds to the micromolar concentration (μM) for which a 50% inhibition of melanogenesis is observed, is determined.
Moreover, a class is given to each of these compounds as regards their maximum depigmenting activity:
class 1: 10 to 30% inhibition of melanogenesis relative to the control (same experiment without test compound);
class 2: 30 to 60% inhibition of melanogenesis relative to the control (same experiment without test compound);
class 3: 60 to 100% inhibition of melanogenesis relative to the control (same experiment without test compound).

| Structure (SMILES) | Class (maximum depigmenting activity) (500 μM) | IC50 [µM] | Class (maximum depigmenting activity) (100 μM) |
| --- | --- | --- | --- |
| O=c1cc(CO)occ1O [Kojic acid] | 2 to 500 μM (class 2: 30 to 60% inhibition of melanogenesis relative to the control (same experiment without test compound)) | 500 | – |
| CCCCCCCCCCCC(=O)Oc1ccc(NC(C)=O)cc1 [Lauroyl [4-(N-acetylamino)] phenol, Lauroyl [4-(N-acetylamino)]phenol] | – | > 100 | 2 to 100 μM (class 2: 30 to 60% inhibition of melanogenesis relative to the control (same experiment without test compound)) |
